Test results taken from patent US8912227B1, “Bicyclic pyrrole derivatives useful as agonists of GPR120” (Janssen Pharmaceutica NV, priority 2014, dated 2014).

Key:
Assay type in all cases: cell-based
[1] = molecular target: T1, long form of human GPR120 (Homo sapiens, UniProt Q5NUL3); assay: Human GPR120 DiscoveRx PathHunter β-Arrestin assay, Procedure β-arrestin A; details: PathHunter CHO-K1 GPR120 β-Arrestin cell line, 3000 cells per well
T1 construct: host or cells: PathHunter CHO-K1 GPR120 β-Arrestin Cell Line
T1 sequence (Q5NUL3 1-377 isoform Q5NUL3-1): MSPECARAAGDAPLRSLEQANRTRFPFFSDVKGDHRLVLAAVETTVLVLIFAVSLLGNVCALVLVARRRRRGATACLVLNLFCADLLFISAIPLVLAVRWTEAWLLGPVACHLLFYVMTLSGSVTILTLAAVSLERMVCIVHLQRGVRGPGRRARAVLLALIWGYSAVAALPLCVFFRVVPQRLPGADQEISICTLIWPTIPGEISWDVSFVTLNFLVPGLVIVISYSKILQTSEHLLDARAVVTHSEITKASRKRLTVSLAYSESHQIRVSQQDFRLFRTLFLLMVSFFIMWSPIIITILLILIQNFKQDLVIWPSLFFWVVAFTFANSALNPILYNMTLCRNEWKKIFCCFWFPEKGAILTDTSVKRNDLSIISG
T1 sequence (P32121 whole entry partner): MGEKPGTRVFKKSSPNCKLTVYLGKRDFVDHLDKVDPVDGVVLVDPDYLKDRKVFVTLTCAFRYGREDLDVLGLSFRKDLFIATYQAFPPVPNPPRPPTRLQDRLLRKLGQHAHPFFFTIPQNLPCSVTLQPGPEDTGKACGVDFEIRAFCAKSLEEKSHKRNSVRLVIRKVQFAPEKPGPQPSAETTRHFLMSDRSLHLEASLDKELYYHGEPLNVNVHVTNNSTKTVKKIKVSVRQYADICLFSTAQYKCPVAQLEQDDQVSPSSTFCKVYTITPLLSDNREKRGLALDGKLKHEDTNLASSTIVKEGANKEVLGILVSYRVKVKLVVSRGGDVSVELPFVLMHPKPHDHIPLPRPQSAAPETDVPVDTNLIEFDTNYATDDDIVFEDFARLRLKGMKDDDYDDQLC
Excerpt: The binding of an agonist (medium/long chain fatty acids or small molecule agonists) to the G-protein-coupled receptor GPR120 activates phospholipase C, leading to release of intracellular Ca^+2 through the generation of inositol 1,4,5-trisphosphate (InsP3 or IP3). GPR120 activation can also trigger intracellular signaling via recruitment of β-Arrestin. In the present method, agonist-induced activation of the human GPR120 receptor is monitored through the use of PathHunter CHO-K1 GPR120 β-Arrestin Cell Line engineered by DiscoveRx, as detailed below. The cell lines are designed to co-express both the ProLink/Enzyme Donor (PK)-tagged GPCR and the Enzyme […] (EA)-tagged Beta-Arrestin fusion proteins. Upon GPR120 receptor stimulation/activation, the EA-tagged β-Arrestin portion is translocated to the tagged receptor, where the two enzyme fragments are brought within close proximity. Under these conditions, these fragments can interact and form an active Beta-gal enzyme complex through Enzyme Fragment Complementation (EFC). This active Beta-gal complex can enzymatically hydrolyse the substrate to produce a detectable light signal; therefore, activation as a function of agonist concentration can be expressed as an EC50 value to determine relative compound activities. This in vitro assay therefore serves to assess compound agonist activity of the GPR120.
In Procedure β-arrestin A, the cell used were PathHunter CHO-K1 GPR120 β-Arrestin Cell Line, expressing the long form of human GPR120 (Genbank accession number NM_181745), with 3000 cells per well.
The selected CHO-K1 GPR120 β-Arrestin cells were cultured in Ham's F12 media supplemented with 10% fetal bovine serum (FBS), 1% Glutamine, 1×p/s, 800 μg/ml G418 and 300 μg/ml Hygromycin B (for selection). Cell stocks were maintained and grown in a sub-confluent state using standard cell culture procedures. The day before the experiment, the cells were harvested with non-enzymatic cell dissociation buffer and re-suspended in complete growth media at the desired concentration. A Corning 384-plate was then seeded with the proper number of cells in a volume of 25 μL, per well. The seeded plates were incubated overnight at 37° C.
On the day of the experiment, the Assay Buffer containing (a) HBSS with Ca^++ and Mg^++, (b) 20 mM HEPES, and (c) 0.1% BSA stabilizer (pH 7.4) was prepared. The growth medium was gently removed from the cell plates and 20 μL of Assay Buffer added to each well. The plate was then incubated at 37° C. for 60 mins. Test compounds were serially diluted in Assay Buffer to desired concentrations (more particularly, to one or more of the following μM concentrations: 25 μM, 12.5 μM, 6.25 μM, 3.125 μM, 1.562 μM, 0.781 μM, 0.391 μM, 0.195 μM, 0.098 μM, 0.049 μM, 0.024 μM, 0.012 μM). Five μl of compound dilution was then added to each well and the plate incubated at 37° C. for 90 mins. The detection reagents were prepared according to the manufacture's instruction. Twelve μL of the detection reagents were added to each well and the plate incubated at room temperature for 60 mins.
The plates were read on an EnVision instrument, using Protocol name: Luminescence, Plate type: 384 Costar, Measurement height: 3 mm, Measurement time: 1 s, Aperture: 384 Plate aperture. The % activity relative to the positive control was calculated using the following equation:
The % Activity values were plotted versus the concentration of test compound and fitted to a sigmoidal dose-response curve with a Hill slope=1 (fixed value) using nonlinear regression with GraphPad Prism 5.0 to calculate the EC50 values. The Fitting Equation was: Y=Bottom+(Top−Bottom)/(1+10^((LogEC50−X)*HillSlope)), where X is the log of the concentration and Y is the response.

Human GPR120 short form [2] = molecular target: T2, Human GPR120 short form (Homo sapiens, UniProt Q5NUL3); assay: Human GPR120 calcium flux assay, Procedure Calcium A; details: HEK-293 cells expressing human GPR120 short form, 2500 cells/well, FLIPR
T2 construct: expressed in transfected cells
T2 sequence (Q5NUL3 1-361): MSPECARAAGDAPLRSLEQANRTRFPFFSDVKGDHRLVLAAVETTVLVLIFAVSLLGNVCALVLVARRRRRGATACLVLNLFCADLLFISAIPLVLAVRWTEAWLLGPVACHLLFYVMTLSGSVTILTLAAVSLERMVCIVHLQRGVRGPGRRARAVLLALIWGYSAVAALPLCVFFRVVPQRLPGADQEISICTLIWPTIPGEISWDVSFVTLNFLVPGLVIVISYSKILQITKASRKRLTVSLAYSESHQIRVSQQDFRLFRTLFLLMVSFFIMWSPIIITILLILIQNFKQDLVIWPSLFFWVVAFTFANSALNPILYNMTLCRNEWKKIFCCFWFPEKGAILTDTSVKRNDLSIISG
Excerpt: (§1) This in vitro assay serves to assess test compound agonist activity against the short splice variant (SVS with Accession number NM_001195755.1 confirmed by sequencing data) of the GPR120 receptor. The Human Short splice variant #2 (NM_001195755.1) is missing an in-frame coding exon compared to variant 1 (the Human Long splice variant NM_181745.3), resulting in a shorter isoform (GPR120-S) lacking a 16 aa protein segment compared to isoform GPR120-L. The assay platform utilizes HEK-293 cells stably transfected to express the Human GPR120 short form. These cells are first loaded with the Ca^+2 sensitive dye, Fluo-4 NW. Upon stimulation, intracellular released Ca^+2 can bind to the dye and alter its fluorescence intensity. This increase in fluorescence signal, and thus the flux in intracellular [Ca^2+], is detected and quantitated by fluorescence imaging using a FLIPR reader. The effect of the agonist is measured as a function of concentration and used to calculate an EC50 based upon a response curve.
In this procedure 2500 cells/well were employed.
(§2) A Human GPR120 clone (Genbank accession number NM_001195755.1) was placed into the pcDNA3.1 mammalian expression vector carrying the neomycin resistance gene. A stable mammalian cell was generated by placing the above clone into a HEK293 background. Clonal cells responding to long chain fatty acids had expression levels of GPR120 confirmed by RT-qPCR. Human HEK-GPR120 cells were cultured in Dulbecco's Modified Eagle's Medium (DMEM)/F12 medium supplemented with 10% fetal bovine serum (FBS), 1% L-Glutamine and 1% penicillin/streptomycin and 0.5 mg/ml G-418. Cells were split 2 times a week to keep the cells in the log-phase growth.
(§3) In preparation for the assay, HEK cells stably transfected with Human GPR120 (2.5K cells per well in 25 uL growth medium) were seeded into 384-well plates and then incubated overnight (37° C., 5% CO2). The next day, the media was changed to 20 μl assay buffer and the cell starved for 1 h at 37° C. The dye loading solution (2× dye) was prepared using 10 ml assay buffer, 100 μl of 250 mM probenecid, 1 bottle of Component A, and 20 μl of dye in DMSO. Twenty μl of the 2× dye loading buffer was then added to each well. The plates were incubated at 37° C. for 30 min, then at room temperature for an additional 15 minutes, before performing the assay on FLIPR.
(§4) Test compounds were prepared in assay buffer (2 μl of test compound+198 μl assay buffer, final DMSO in assay plate is 0.2%) at the desired concentration, more particularly at 100 μM, 50 μM, 25 μM, 12.5 μM, 6.25 μM, 3.125 μM, 1.562 μM, 0.781 μM, 0.391 μM, 0.195 μM, 0.098 μM, 0.049 μM, 0.024 μM and 0.012 μM.
(§5) The assay was performed on a FLIPR plate reader using the following parameters. Baseline was read for 10 seconds at 1 sec intervals. The program was set to transfer 10 μL of ligand from compound plate to cell plate after baseline reading. Aspiration was executed at: 10 μl/sec speed, 4.6 μl height; Dispensing was executed at: 30 μl/sec speed, 45 μl height. After compound addition, each well was read for 300 sec, with measurements collected at 1 sec intervals.
(§6) The kinetic data from the FLIPR was based upon a 5 minute window for data collection. The fluorescence of each sample well was used for individual calculations of a normalized RFU value, which was defined as maximum response minus the minimum response. The normalized fluorescence reading (RFU) was calculated as follows: RFU=Fmax−Fmin
(§7) The data were fitted to a sigmoidal dose-response curve with a variable Hill slope (<2) using nonlinear regression with GraphPad Prism 5.0 to calculate the EC50 values. The Fitting Equation was: Y=Bottom+(Top−Bottom)/(1+10^((LogEC50−X)*HillSlope)), where X is the log of the concentration and Y is the response.

Human GPR120 short form [3] = molecular target: T2, Human GPR120 short form; assay: Human GPR120 calcium flux assay, Procedure Calcium B; details: HEK-293 cells expressing human GPR120 short form, 4200 cells/well, FLIPR
Excerpt: as §1
In this procedure 4200 cells/well were employed.
as §2, §3, §4, §5, §6, §7

SMILES	EC50 [1] [nM]	EC50 (Human GPR120 short form [2]) [nM]	EC50 (Human GPR120 short form [3]) [nM]
OCCCc1ccc(OCc2c(Cl)ccn2-c2ccc(Cl)cc2)c(F)c1F [Compound 10, 3-(4-{[3-Chloro-1-(4-chlorophenyl)-1H-pyrrol-2-yl]methoxy}-2,3-difluorophenyl)propan-1-ol]	258	1090	740
O=C(O)CCc1ccc(OCc2c(Cl)ccn2-c2ccc(Cl)cc2)c(F)c1F [Compound 11, 3-(4-{[3-chloro-1-(4-chlorophenyl)-1H-pyrrol-2-yl]methoxy}-2,3-difluorophenyl)propanoic acid]	859	934	161
Cc1c(CCC(=O)O)ccc(OCc2c(C(F)(F)F)ccn2-c2ccc(Cl)cc2)c1C [Compound 15, 3-(4-{[1-(4-Chlorophenyl)-3-(trifluoromethyl)-1H-pyrrol-2-yl]methoxy}-2,3-dimethylphenyl)propanoic acid]	1100	993	88
O=C(O)CCc1ccc(OCc2c(C(F)(F)F)ccn2-c2ccc(Cl)cc2)c(F)c1F [Compound 16, 3-(4-{[1-(4-Chlorophenyl)-3-(trifluoromethyl)-1H-pyrrol-2-yl]methoxy}-2,3-difluorophenyl)propanoic acid]	639	836	91
Cc1c(CCCO)ccc(OCc2c(C(F)(F)F)ccn2-c2ccc(Cl)cc2)c1C [Compound 17, 3-(4-{[1-(4-Chlorophenyl)-3-(trifluoromethyl)-1H-pyrrol-2-yl]methoxy}-2,3-dimethylphenyl)propan-1-ol]	238	1090	533
Cc1c(CCCO)ccc(OCc2c(C(F)(F)F)ccn2-c2ccccc2)c1C [Compound 19, 3-(2,3-Dimethyl-4-{[1-phenyl-3-(trifluoromethyl)-1H-pyrrol-2-yl]methoxy}phenyl)propan-1-ol]	283	843	261
OCCCc1ccc(OCc2c(C(F)(F)F)ccn2-c2ccc(Br)cc2)c(F)c1F [Compound 21, 3-(4-{[1-(4-Bromophenyl)-3-(trifluoromethyl)-1H-pyrrol-2-yl]methoxy}-2,3-difluorophenyl)propan-1-ol]	87	709	282
COc1ccc(-n2ccc(C(F)(F)F)c2COc2ccc(CCC(=O)O)c(C)c2C)cc1 [Compound 24, 3-(4-{[1-(4-Methoxyphenyl)-3-(trifluoromethyl)-1H-pyrrol-2-yl]methoxy}-2,3-dimethylphenyl)propanoic acid]	308	931	227
COc1ccc(-n2ccc(C(F)(F)F)c2COc2ccc(CCCO)c(C)c2C)cc1 [Compound 25, 3-(4-{[1-(4-Methoxyphenyl)-3-(trifluoromethyl)-1H-pyrrol-2-yl]methoxy}-2,3-dimethylphenyl)propan-1-ol]	203	608	413
COc1ccc(-n2ccc(C(F)(F)F)c2COc2ccc(CCC(=O)O)c(F)c2F)cc1 [Compound 26, 3-(2,3-Difluoro-4-{[1-(4-methoxyphenyl)-3-(trifluoromethyl)-1H-pyrrol-2-yl]methoxy}phenyl)propanoic acid]	249	916	230
COc1ccc(-n2ccc(C(F)(F)F)c2COc2ccc(CCCO)c(F)c2F)cc1 [Compound 27, 3-(2,3-Difluoro-4-{[1-(4-methoxyphenyl)-3-(trifluoromethyl)-1H-pyrrol-2-yl]methoxy}phenyl)propan-1-ol]	46	218	54
COc1ccc(-n2ccc(C(F)(F)F)c2COc2c(F)cc(CCC(=O)O)cc2F)cc1 [Compound 28, 3-(3,5-Difluoro-4-{[1-(4-methoxyphenyl)-3-(trifluoromethyl)-1H-pyrrol-2-yl]methoxy}phenyl)propanoic acid]	221	641	108
OCCCc1cc(F)c(OCc2c(C(F)(F)F)ccn2-c2ccc(Br)cc2)c(F)c1 [Compound 30, 3-(4-[[1-(4-bromophenyl)-3-(trifluoromethyl)-1H-pyrrol-2-yl]methoxy]-3,5-difluorophenyl)propan-1-ol]	25	427	246
